Laboratory results reported in paper PMC2574845 (Drug metabolism and disposition: the biological fate of …, 2008).
Blank lines part the entries; values can stand above or below the compound they belong to.

Legend:
[1] = in water; ref Lang et al., 2007; cited from earlier work
[2] = BA-glutathione conjugate formation; conditions: 50 μM BA; for fraction of BA conjugated with glutathione / relative rate of glutathione conjugate formation, rank order: 5 mM glutathione, pH 7.4, room temperature; for fraction of BA conjugated with glutathione: data not shown
[3] = Quinone/hydroquinone cycling in microsomal incubations; conditions: microsomal incubation with NAD(P)H; data not shown
Metabolism [4] = conditions: mouse liver microsomes, 50 μM BA, pH 7.4, 35 °C; for oxygen consumption rates, NADPH-dependent metabolism, comparison: p<0.05; for relative oxygen consumption rates, NADH-dependent metabolism, rank order: > indicates p<0.05
[5] = target: recombinant human NQO1 (rhNQO1) (Homo sapiens, UniProt P15559); test: Relative stability of hydroquinone ansamycins; assay type: physicochemical; conditions: for relative stability of BAH2 (nmol oxygen consumption per nmol NADH oxidized), rank order: 50 mM potassium phosphate buffer, pH 7.4, 35 °C, BAH2 generated by rhNQO1 and NADH, > indicates p<0.05
Metabolism [6] = conditions: human liver microsomes, 50 μM BA, pH 7.4, 35 °C, > indicates p<0.05
rhNQO1 = rhNQO1 (Homo sapiens, UniProt P15559); test: Prevention of GM and 17DMAG glutathione conjugate formation by rhNQO1; assay type: biochemical; conditions: for prevention of conjugation with glutathione by NQO1 reduction: 50 μM BA, 5 mM GSH, 11.8 μg rhNQO1, 500 μM NADH, pH 7.4, room temperature
[7] = 5 min, 50 μM, pH 7.4
[8] = target: T1, human NADPH-cytochrome P450 reductase (Homo sapiens, UniProt P16435); conditions: GM, NADH and NADPH-cytochrome P450 reductase, no NADPH
T1 sequence (P16435 1-677): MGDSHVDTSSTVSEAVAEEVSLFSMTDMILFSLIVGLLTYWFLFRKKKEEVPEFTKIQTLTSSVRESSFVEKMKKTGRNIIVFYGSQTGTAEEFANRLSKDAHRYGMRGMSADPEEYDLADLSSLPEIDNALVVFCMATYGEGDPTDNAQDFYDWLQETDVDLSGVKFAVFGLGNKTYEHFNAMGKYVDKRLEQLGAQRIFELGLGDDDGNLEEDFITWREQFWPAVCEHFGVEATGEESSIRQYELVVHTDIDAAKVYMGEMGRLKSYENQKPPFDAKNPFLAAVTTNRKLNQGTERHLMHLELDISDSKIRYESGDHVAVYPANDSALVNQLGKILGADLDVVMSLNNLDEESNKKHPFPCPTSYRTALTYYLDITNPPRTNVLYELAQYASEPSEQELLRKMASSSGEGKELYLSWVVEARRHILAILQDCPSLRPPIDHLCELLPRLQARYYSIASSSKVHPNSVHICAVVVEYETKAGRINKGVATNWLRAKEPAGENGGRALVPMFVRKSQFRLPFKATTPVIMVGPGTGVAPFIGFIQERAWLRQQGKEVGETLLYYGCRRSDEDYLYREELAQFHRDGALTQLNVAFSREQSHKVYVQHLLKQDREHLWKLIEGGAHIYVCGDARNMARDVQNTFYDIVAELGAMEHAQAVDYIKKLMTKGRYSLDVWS

Sequence of rhNQO1 (P15559 whole entry): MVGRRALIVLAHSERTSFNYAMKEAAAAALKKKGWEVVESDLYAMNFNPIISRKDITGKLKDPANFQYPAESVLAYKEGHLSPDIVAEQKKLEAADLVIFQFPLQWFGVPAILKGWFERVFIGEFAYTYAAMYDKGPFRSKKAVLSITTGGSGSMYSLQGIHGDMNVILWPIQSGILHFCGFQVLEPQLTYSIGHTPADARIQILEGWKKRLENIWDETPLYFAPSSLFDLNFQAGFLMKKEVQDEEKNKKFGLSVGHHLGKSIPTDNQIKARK
Sequence of recombinant human NQO1 (rhNQO1) (P15559 whole entry): as above

Compound: C=CCNC1=C2C[C@@H](C)C[C@H](OC)[C@H](O)[C@@H](C)/C=C(\C)[C@H](OC(N)=O)[C@@H](OC)/C=C\C=C(/C)C(=O)NC(=CC1=O)C2=O [17AAG, 17-(allylamino)-17-demethoxygeldanamycin]
one-electron redox potential [1]: −0.390 V
fraction of BA conjugated with glutathione ([2]; after 24 hours): less than 15%
compound in the quinone form on HPLC [3]: > 95%
oxygen consumption rates, NADPH-dependent metabolism, comparison (Metabolism [4]): significantly slower compared to GM

Compound: C=CCNc1c(O)cc2c(O)c1C[C@@H](C)C[C@H](OC)[C@H](O)[C@@H](C)/C=C(\C)[C@H](OC(N)=O)[C@@H](OC)/C=C\C=C(/C)C(=O)N2 [17AAGH2, 17-(allylamino)-17-demethoxygeldanamycin hydroquinone]
relative stability of BAH2 (nmol oxygen consumption per nmol NADH oxidized), rank order [5]: GMH2>17AAGH2>17DMAGH2>17AGH2, 17AEP-GAH2

Compound: CO[C@H]1/C=C\C=C(/C)C(=O)NC2=CC(=O)C(NCCN3CCCC3)=C(C[C@@H](C)C[C@H](OC)[C@H](O)[C@@H](C)/C=C(\C)[C@@H]1OC(N)=O)C2=O [17AEP-GA, 17-demethoxy-17-[[2-(pyrrolidin-1-yl)ethyl]amino]-geldanamycin]
relative rate of glutathione conjugate formation, rank order [2]: GM>17DMAG>17AEP-GA>17AAG, 17AG
fraction of BA conjugated with glutathione ([2]; within 10 hours): about 90%
relative oxygen consumption rates, NADH-dependent metabolism, rank order (Metabolism [4]): GM>17DMAG>17AG, 17AEP-GA, 17AAG
oxygen consumption rates, NADPH-dependent metabolism, comparison (Metabolism [4]): significantly greater than 17AAG
relative oxygen consumption rates, NADH-dependent metabolism, rank order (Metabolism [6]): GM>17DMAG, 17AG, 17AEP-GA>17AAG
relative oxygen consumption rates, NADPH-dependent metabolism, rank order (Metabolism [6]): GM, 17DMAG, 17AEP-GA>17AG>17AAG

Compound: COC1C=CC=C(C)C(=O)Nc2cc(O)c(NCCN3CCCC3)c(c2O)CC(C)CC(OC)C(O)C(C)C=C(C)C1OC(N)=O (stereo not shown) [17AEP-GAH2, 17-demethoxy-17-[[2-(pyrrolidin-1-yl)ethyl]amino]-geldanamycin hydroquinone]
relative stability of BAH2 (nmol oxygen consumption per nmol NADH oxidized), rank order [5]: GMH2>17AAGH2>17DMAGH2>17AGH2, 17AEP-GAH2
half-life of auto-oxidation of BAH2 back to quinone (in words) ([5]; auto-oxidation over time): a few minutes

Compound: COC1C=CC=C(C)C(=O)Nc2cc(O)c(N)c(c2O)CC(C)CC(OC)C(O)C(C)C=C(C)C1OC(N)=O (stereo not shown) [17AGH2, 17-(amino)-17-demethoxygeldanamycin hydroquinone]
relative stability of BAH2 (nmol oxygen consumption per nmol NADH oxidized), rank order [5]: GMH2>17AAGH2>17DMAGH2>17AGH2, 17AEP-GAH2

Compound: CO[C@H]1/C=C\C=C(/C)C(=O)NC2=CC(=O)C(NCCN(C)C)=C(C[C@@H](C)C[C@H](OC)[C@H](O)[C@@H](C)/C=C(\C)[C@@H]1OC(N)=O)C2=O [17DMAG, 17-demethoxy-17-[[2-(dimethylamino)ethyl]amino]-geldanamycin]
prevention of conjugation with glutathione by NQO1 reduction (rhNQO1): > 95%
relative rate of glutathione conjugate formation, rank order [2]: GM>17DMAG>17AEP-GA>17AAG, 17AG
glutathione conjugate (17DMAG-SG) formed ([2]; 5 mM reduced glutathione, phosphate buffer pH 7.4, room temperature, within 4 hours): approximately 47 μM
compound in the quinone form on HPLC [3]: > 95%
relative oxygen consumption rates, NADH-dependent metabolism, rank order (Metabolism [4]): GM>17DMAG>17AG, 17AEP-GA, 17AAG
oxygen consumption rates, NADPH-dependent metabolism, comparison (Metabolism [4]): significantly greater than 17AAG
relative oxygen consumption rates, NADH-dependent metabolism, rank order (Metabolism [6]): GM>17DMAG, 17AG, 17AEP-GA>17AAG
relative oxygen consumption rates, NADPH-dependent metabolism, rank order (Metabolism [6]): GM, 17DMAG, 17AEP-GA>17AG>17AAG

Compound: CO[C@H]1/C=C\C=C(/C)C(=O)Nc2cc(O)c(NCCN(C)C)c(c2O)C[C@@H](C)C[C@H](OC)[C@H](O)[C@@H](C)/C=C(\C)[C@@H]1OC(N)=O [17DMAGH2, 17-demthoxy-17-[[2-(dimethylamino)ethyl]amino]-geldanamycin hydroquinone]
relative stability of BAH2 (nmol oxygen consumption per nmol NADH oxidized), rank order [5]: GMH2>17AAGH2>17DMAGH2>17AGH2, 17AEP-GAH2

Compound: COC1=C2C[C@@H](C)C[C@H](OC)[C@H](O)[C@@H](C)/C=C(\C)[C@H](OC(N)=O)[C@@H](OC)/C=C\C=C(/C)C(=O)NC(=CC1=O)C2=O [GM, geldanamycin]
prevention of conjugation with glutathione by NQO1 reduction (rhNQO1): > 95%
glutathione conjugate (GMH2-SG) formed [7]: approximately 45 μM
one-electron redox potential [1]: −0.243 V
relative rate of glutathione conjugate formation, rank order [2]: GM>17DMAG>17AEP-GA>17AAG, 17AG
compound in the quinone form on HPLC [3]: about 70%
relative oxygen consumption rates, NADH-dependent metabolism, rank order (Metabolism [4]): GM>17DMAG>17AG, 17AEP-GA, 17AAG
oxygen consumption rates, NADPH-dependent metabolism, comparison (Metabolism [4]): significantly greater than 17AAG
relative oxygen consumption rates, NADH-dependent metabolism, rank order (Metabolism [6]): GM>17DMAG, 17AG, 17AEP-GA>17AAG
relative oxygen consumption rates, NADPH-dependent metabolism, rank order (Metabolism [6]): GM, 17DMAG, 17AEP-GA>17AG>17AAG
oxygen consumption with NADH as cofactor [8]: no oxygen consumption was observed

Compound: COc1c(O)cc2c(O)c1C[C@@H](C)C[C@H](OC)[C@H](O)[C@@H](C)/C=C(\C)[C@H](OC(N)=O)[C@@H](OC)/C=C\C=C(/C)C(=O)N2 [GMH2, geldanamycin hydroquinone]
relative stability of BAH2 (nmol oxygen consumption per nmol NADH oxidized), rank order [5]: GMH2>17AAGH2>17DMAGH2>17AGH2, 17AEP-GAH2
half-life of auto-oxidation of BAH2 back to quinone ([5]; auto-oxidation over time): about 20 hours

The remaining lines, values ahead:

relative rate of glutathione conjugate formation, rank order [2]: GM>17DMAG>17AEP-GA>17AAG, 17AG
fraction of BA conjugated with glutathione ([2]; after 24 hours): less than 15%
compound in the quinone form on HPLC [3]: > 95%
relative oxygen consumption rates, NADH-dependent metabolism, rank order (Metabolism [4]): GM>17DMAG>17AG, 17AEP-GA, 17AAG
oxygen consumption rates, NADPH-dependent metabolism, comparison (Metabolism [4]): significantly greater than 17AAG
relative oxygen consumption rates, NADH-dependent metabolism, rank order (Metabolism [6]): GM>17DMAG, 17AG, 17AEP-GA>17AAG
relative oxygen consumption rates, NADPH-dependent metabolism, rank order (Metabolism [6]): GM, 17DMAG, 17AEP-GA>17AG>17AAG
Compound: CO[C@H]1/C=C\C=C(/C)C(=O)NC2=CC(=O)C(N)=C(C[C@@H](C)C[C@H](OC)[C@H](O)[C@@H](C)/C=C(\C)[C@@H]1OC(N)=O)C2=O [17AG, 17-(amino)-17-demethoxygeldanamycin]

effect on NQO1-mediated prevention of BA glutathione conjugation (rhNQO1; pretreatment with 2 μM ES936, GM or 17DMAG with NADH, rhNQO1 and glutathione): abrogated
Compound: COC1=CC(=O)c2c(c(COc3ccc([N+](=O)[O-])cc3)c(C)n2C)C1=O [ES936, 5-methoxy-1,2-dimethyl-3-[(4-nitrophenoxy)methyl]indole-4,7-dione]
